Experimental data taken from ChEMBL document CHEMBL1128392, “Receptor surface models. 2. Application to quantitative structure-activity relationships studies” (J Med Chem, 1995).

Target: Dopamine beta-hydroxylase (Homo sapiens, UniProt P09172)
Assay: Inhibition of dopamine beta hydroxylase

Chain of Dopamine beta-hydroxylase (P09172 whole entry): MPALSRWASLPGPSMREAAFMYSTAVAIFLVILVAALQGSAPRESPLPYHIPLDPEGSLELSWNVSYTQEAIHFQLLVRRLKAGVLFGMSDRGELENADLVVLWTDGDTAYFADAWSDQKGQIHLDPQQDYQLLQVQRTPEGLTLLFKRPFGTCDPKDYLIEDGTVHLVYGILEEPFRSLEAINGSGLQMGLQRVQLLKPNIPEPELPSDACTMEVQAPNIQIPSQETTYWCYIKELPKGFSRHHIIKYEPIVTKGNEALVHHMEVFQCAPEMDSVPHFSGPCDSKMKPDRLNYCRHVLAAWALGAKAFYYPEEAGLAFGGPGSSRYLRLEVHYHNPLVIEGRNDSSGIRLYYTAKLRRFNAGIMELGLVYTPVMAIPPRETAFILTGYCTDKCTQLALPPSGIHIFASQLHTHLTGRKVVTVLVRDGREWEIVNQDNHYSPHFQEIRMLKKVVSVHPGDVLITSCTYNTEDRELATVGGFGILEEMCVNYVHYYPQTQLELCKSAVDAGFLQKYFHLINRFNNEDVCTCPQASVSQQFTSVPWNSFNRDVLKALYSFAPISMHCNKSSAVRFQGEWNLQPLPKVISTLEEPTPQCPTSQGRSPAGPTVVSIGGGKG

| SMILES | IC50 |
| --- | --- |
| Oc1ccc(Cn2cc[nH]c2=S)cc1C(F)(F)F | 120 µM |
| S=c1[nH]ccn1Cc1c(Cl)cccc1Cl | 708 µM |
| S=c1[nH]ccn1Cc1c(Cl)cc(Cl)cc1Cl | 102 µM |
| S=c1[nH]ccn1Cc1ccccc1Cl | 355 µM |
| S=c1[nH]ccn1Cc1ccc(Cl)cc1 | 95.5 µM |
| COc1ccc(Cn2cc[nH]c2=S)cc1OC | 339 µM |
| COc1ccc(Cn2cc[nH]c2=S)cc1Br | 83.2 µM |
| S=c1[nH]ccn1Cc1cc(Cl)ccc1Cl | 97.7 µM |
| Oc1cccc(Cn2cc[nH]c2=S)c1 | 148 µM |
| COc1cc(Cl)c(Cn2cc[nH]c2=S)c(Cl)c1 | 155 µM |
| S=c1[nH]ccn1Cc1ccc(Br)cc1 | 115 µM |
| COc1ccc(Cn2cc[nH]c2=S)cc1[N+](=O)[O-] | 355 µM |
| Oc1ccccc1Cn1cc[nH]c1=S | 575 µM |
| FC(F)(F)c1ccc(Cn2cc[nH]c2=S)cc1 | 200 µM |
| Cc1ccccc1Cn1cc[nH]c1=S | 339 µM |
| Cc1ccc(Cn2cc[nH]c2=S)cc1 | 148 µM |
| COc1cccc(OC)c1Cn1cc[nH]c1=S | 501 µM |
| Oc1cc(Cl)c(Cn2cc[nH]c2=S)c(Cl)c1 | 75.9 µM |
| COc1ccc(Cn2cc[nH]c2=S)cc1C(F)(F)F | 174 µM |
| Cc1cccc(C)c1Cn1cc[nH]c1=S | 1000 µM |
| COc1cccc(Cn2cc[nH]c2=S)c1 | 158 µM |
| COc1ccc(Cn2cc[nH]c2=S)cc1 | 204 µM |

Further molecules by falling IC50, results first:

| IC50 | SMILES |
| --- | --- |
| 74.1 µM | COc1ccccc1Cn1cc[nH]c1=S |
| 74.1 µM | COc1ccc(Cn2cc[nH]c2=S)cc1F |
| 69.2 µM | COc1ccc(Cn2cc[nH]c2=S)cc1C |
| 61.7 µM | Oc1c(F)c(F)c(Cn2cc[nH]c2=S)c(F)c1F |
| 52.5 µM | O=[N+]([O-])c1ccc(Cn2cc[nH]c2=S)cc1 |
| 52.5 µM | S=c1[nH]ccn1Cc1cccc(Cl)c1Cl |
| 49 µM | Cc1cc(Cn2cc[nH]c2=S)ccc1O |
| 46.8 µM | COc1c(Cl)cc(Cn2cc[nH]c2=S)cc1Cl |
| 46.8 µM | Fc1ccc(Cn2cc[nH]c2=S)cc1 |
| 36.3 µM | COc1c(F)cc(Cn2cc[nH]c2=S)cc1F |
| 33.1 µM | S=c1[nH]ccn1Cc1ccccc1 |
| 30.9 µM | O=[N+]([O-])c1cc(Cn2cc[nH]c2=S)ccc1O |
| 28.2 µM | S=c1[nH]ccn1Cc1ccc(Cl)c(Cl)c1 |
| 17 µM | S=c1[nH]ccn1Cc1ccc(Cl)cc1Cl |
| 12 µM | Oc1ccc(Cn2cc[nH]c2=S)cc1Br |
| 12 µM | S=c1[nH]ccn1Cc1cccc(Cl)c1 |
| 5.62 µM | Fc1cccc(Cn2cc[nH]c2=S)c1 |
| 2.57 µM | Oc1ccc(Cn2cc[nH]c2=S)cc1 |
| 2.4 µM | S=c1[nH]ccn1Cc1cc(Cl)cc(Cl)c1 |
| 2.19 µM | Oc1ccc(Cn2cc[nH]c2=S)cc1O |
| 1.51 µM | Oc1ccc(Cn2cc[nH]c2=S)cc1F |
| 1.2 µM | Fc1cc(F)cc(Cn2cc[nH]c2=S)c1 |
| 0.676 µM | Oc1c(Cl)cc(Cn2cc[nH]c2=S)cc1Cl |
| 0.0741 µM | Oc1c(F)cc(Cn2cc[nH]c2=S)cc1F |
